Source: article PMC11085442 (Molecules, 2024)
In brackets after ≈: the same amount, converted by molar mass.

What was measured:
PC 12 cell lines = test: Radiation protection in vitro (CCK-8); type: cell-based, rat; settings: for radiation protection capability compared with curcumin / radiation protection capacity: 10 μM; for radiation protection capability compared with curcumin: irradiated PC 12; for radiation protection capacity: versus radiation group; for Cell viability / viability at 5 µM / viability at 10 µM / viability at 20 µM: radiation 8.0 Gy, PC 12, radiation group 50.22 ± 1.08; for Cell viability: in % (unit assumed); for viability at 5 µM / viability at 10 µM / viability at 20 µM: Rattus norvegicus; for viability at 5 µM: PC-12, Dose 5 μM; for viability at 10 µM: PC-12, Dose 10 μM; for viability at 20 µM: PC-12, Dose 20 μM
Procedure: The rat adrenal pheochromocytoma cells (PC 12) were used for in vitro studies. A Cell Counting Kit-8 (CCK-8, Applygen Technologies Co., Ltd., Beijing, China) assay was used to determine cell viability. […] Cells were irradiated with dose of 8.0 Gy at a dose rate of 0.8 Gy/min. Then, 10 μL CCK-8 solution was added to all the wells. After 4 h incubation, the absorbance at 450 nm of each well was measured in a multiscan photometer.

[1] = Aqueous solubility determination by UV spectrophotometer; type: physicochemical; settings: water, thermodynamic from solid, saturated solution concentration
Procedure: A UV spectrophotometer was used to test the aqueous solubility of target compounds. Each compound to be tested was prepared into solutions with concentrations of 0.2 M, 0.1 M, 0.05 M, 0.025 M, 0.0125 M, 0.00625 M, and 0.003125 M. The optical density (OD) values of the prepared solutions were measured using an ultraviolet spectrophotometer, and concentration–OD-value standard curves were drawn for each compound to be tested. The saturated solutions of the target compounds were diluted by 5000 times and detected using an ultraviolet spectrophotometer to measure the OD values, respectively. The measured OD values were substituted into the corresponding concentration-OD value standard curve to calculate the diluted concentrations, which were multiplied by 5000 to obtain the saturated solution concentrations of the target compounds.

[2] = system: LPS-stimulated RAW264.7 cell lines; test: LPS-induced NO production (Griess) in RAW264.7; type: cell-based, murine; settings: for inhibitory activity against NO production compared with curcumin: 10 μM; for The production of NO: LPS group 49.86 ± 0.62, control 1.20 ± 0.38
Procedure: RAW 264.7 cells were plated in 96-well plates at a density of 1 × 10^4 cells/well and incubated overnight at 37 °C under 5% CO2. […] Dexamethasone (Solarbio, D8040, Beijing, China) was used as the positive control. Then, 24 h later, NO production was determined by measuring the nitrite content using Griess reagents. Fifty microliters of culture supernatants were transferred to 96-well plates and mixed with 50 μL Griess reagent A. After incubation at room temperature for 5 min, the samples were mixed with an equal volume Griess reagent B for another 5 min. The absorbance of each mixture at 540 nm was measured using a microplate reader.

[3] = system: H2O2-stimulated PC 12 cell lines; test: Protection against H2O2-induced oxidative damage (CCK-8); type: cell-based, rat; settings: for viability at 5 µM / viability at 10 µM / viability at 20 µM: Rattus norvegicus; for viability at 5 µM: PC-12, Dose 5 μM; for viability at 5 µM / viability at 10 µM / viability at 20 µM / Cell viability: H2O2-induced oxidative damage, PC 12, H2O2 group 49.69 ± 1.37, control 100; for viability at 10 µM: PC-12, Dose 10 μM; for viability at 20 µM: PC-12, Dose 20 μM; for Cell viability: in % (unit assumed); for anti-oxidant capacity compared with curcumin: 10 μM; for anti-oxidant capacity compared with curcumin / cell survival rate (anti-oxidant): H2O2-stimulated PC 12; for cell survival rate (anti-oxidant): at 10 μM
Procedure: PC 12 cells were seeded in 96-well plates at a density of 8000 cells/well and incubated overnight. […] After incubating under the same conditions for 24 h, 10 μL CCK-8 solution was added to each well. After 2 h incubation, the absorbance of each well was measured at 450 nm using a microplated reader (Multiskan MK-3, Thermo, Waltham, MA, USA).

[4] = Dose 5 μM, LPS-stimulated RAW264.7
[5] = Dose 10 μM, LPS-stimulated RAW264.7
[6] = Dose 15 μM, LPS-stimulated RAW264.7

| Compound | radiation protection capacity (PC 12 cell lines) | Cell viability (PC 12 cell lines; Dose 5 μM) | Cell viability (PC 12 cell lines; Dose 10 μM) | Cell viability (PC 12 cell lines; Dose 20 μM) | solubility [1] | inhibitory activity against NO production compared with curcumin [2] | The production of NO [2, 4] | The production of NO [2, 5] | The production of NO [2, 6] | viability at 5 µM [3] | viability at 10 µM [3] | viability at 20 µM [3] | viability at 5 µM (PC 12 cell lines) | viability at 10 µM (PC 12 cell lines) | viability at 20 µM (PC 12 cell lines) | Cell viability ([3]; Dose 5 μM) | Cell viability ([3]; Dose 10 μM) | Cell viability ([3]; Dose 20 μM) | other results |
| --- | --- | --- | --- | --- | --- | --- | --- | --- | --- | --- | --- | --- | --- | --- | --- | --- | --- | --- | --- |
| COc1cc(/C=C/C(=O)CC(=O)/C=C/c2c(C)cc(O)cc2C)cc(CN(C)C)c1O [Compound 13a] | a certain degree of radiation protection capacity | 66.55 ± 2.11 | 75.50 ± 1.73 | 88.50 ± 1.18 | 285 mg/mL (≈ 674 mM) | better inhibitory activity | 17.80 ± 2.19 | 9.09 ± 1.21 | 5.58 ± 0.11 | 71.5 ± 2.53% | 77.9 ± 3.02% | 90.2 ± 3.77% | – | – | – | – | – | – | radiation protection capability compared with curcumin (PC 12 cell lines): better radiation protection capability |
| COc1cc(/C=C/C(=O)CC(=O)/C=C/c2ccc(O)cc2C)cc(CN(C)C)c1O [Compound 3a] | – | – | – | – | 255 mg/mL (≈ 623 mM) | better inhibitory activity | 32.92 ± 2.00 | 16.27 ± 1.74 | 5.29 ± 0.97 | – | – | – | 57.1 ± 3.05% | 64.2 ± 0.94% | 69.1 ± 2.51% | 61.60 ± 3.89 | 72.94 ± 2.65 | 86.90 ± 1.63 | – |
| COc1cc(/C=C/C(=O)CC(=O)/C=C/c2cc(C)c(O)c(C)c2)cc(CN(C)C)c1O [Compound 8a] | a certain degree of radiation protection capacity | – | – | – | 118 mg/mL (≈ 279 mM) | better inhibitory activity | 35.08 ± 2.53 | 16.57 ± 1.70 | 4.61 ± 0.29 | – | – | – | 60.3 ± 1.38% | 62.2 ± 0.75% | 81.9 ± 2.94% | 74.54 ± 1.42 | 81.49 ± 3.47 | 87.62 ± 2.98 | anti-oxidant capacity compared with curcumin [3]: better anti-oxidant capacity |
| COc1cc(O)ccc1/C=C/C(=O)CC(=O)/C=C/c1cc(CN(C)C)c(O)c(OC)c1 [Compound 9a] | – | – | – | – | 167 mg/mL (≈ 393 mM) | – | 36.91 ± 0.59 | 21.33 ± 0.19 | 11.29 ± 0.25 | – | – | – | 56.9 ± 1.03% | 60.9 ± 1.55% | 70.2 ± 2.99% | 63.56 ± 2.88 | 70.76 ± 3.98 | 81.08 ± 2.61 | – |
| COc1cc(/C=C/C(=O)CC(=O)/C=C/c2cc(OC)c(O)c(OC)c2)cc(CN(C)C)c1O [Compound 2a] | – | – | – | 92.24 ± 6.04 | 148 mg/mL (≈ 325 mM) | – | 41.89 ± 1.95 | 38.68 ± 0.96 | 36.24 ± 0.50 | – | – | – | 57.7 ± 4.12% | 61.6 ± 4.11% | – | 56.60 ± 0.54 | 61.51 ± 1.77 | 65.65 ± 1.31 | cell survival rate (anti-oxidant) [3]: 61% |
| CCOc1cc(/C=C/C(=O)CC(=O)/C=C/c2cc(CN(C)C)c(O)c(OC)c2)ccc1O [Compound 1a] | a certain degree of radiation protection capacity | – | – | – | 201 mg/mL (≈ 457 mM) | – | 44.93 ± 0.35 | 32.32 ± 1.94 | 5.77 ± 0.09 | – | – | – | 60 ± 5.39% | 62.9 ± 6.12% | – | 66.25 ± 1.36 | 80.18 ± 1.38 | 89.36 ± 1.63 | anti-oxidant capacity compared with curcumin [3]: better anti-oxidant capacity |
| COc1cc(/C=C/C(=O)CC(=O)/C=C/c2ccc(O)c(Cl)c2)cc(CN(C)C)c1O [Compound 7a] | – | – | – | – | 258 mg/mL (≈ 600 mM) | better inhibitory activity | 35.35 ± 1.59 | 16.83 ± 0.42 | 9.77 ± 0.63 | – | – | – | 62.1 ± 1.39% | 65.5 ± 2.03% | 75.7 ± 2.05% | 54.89 ± 1.04 | 62.07 ± 4.16 | 79.65 ± 3.04 | cell survival rate (anti-oxidant) [3]: 62% |
| COc1cc(/C=C/C(=O)CC(=O)/C=C/c2ccc(O)cc2F)cc(CN(C)C)c1O [Compound 4a] | – | – | – | 97.55 ± 3.44 | 314 mg/mL (≈ 760 mM) | – | 31.54 ± 1.30 | 20.51 ± 1.88 | 9.45 ± 1.96 | – | – | – | 56.4 ± 3.51% | 61.5 ± 3.74% | – | 67.52 ± 3.31 | 75.00 ± 2.39 | 86.52 ± 5.31 | – |
| COc1cc(/C=C/C(=O)CC(=O)/C=C/c2cc(C)c(O)cc2C)cc(CN(C)C)c1O [Compound 12a] | a certain degree of radiation protection capacity | 59.04 ± 1.00 | 63.19 ± 1.90 | 77.34 ± 2.18 | 206 mg/mL (≈ 487 mM) | better inhibitory activity | 18.38 ± 1.63 | 12.76 ± 0.83 | 9.05 ± 0.72 | 76.3 ± 3.14% | 81.9 ± 2.3% | 88.1 ± 2.09% | – | – | – | – | – | – | anti-oxidant capacity compared with curcumin [3]: better anti-oxidant capacity |
| COc1cc(/C=C/C(=O)CC(=O)/C=C/c2c(OC)cc(O)cc2OC)cc(CN(C)C)c1O [Compound 14a] | a certain degree of radiation protection capacity | 64.83 ± 0.66 | 68.68 ± 1.31 | 77.66 ± 1.75 | 126 mg/mL (≈ 277 mM) | better inhibitory activity | 29.10 ± 0.37 | 13.47 ± 0.31 | 7.49 ± 0.40 | 68 ± 3.05% | 77.1 ± 0.64% | 81.9 ± 1.35% | – | – | – | – | – | – | radiation protection capability compared with curcumin (PC 12 cell lines): better radiation protection capability |
| COc1cc(/C=C/C(=O)CC(=O)/C=C/c2ccc(O)cc2)cc(CN(C)C)c1O [Compound 10a] | – | 61.98 ± 2.45 | 67.94 ± 4.69 | 81.14 ± 3.72 | 335 mg/mL (≈ 848 mM) | better inhibitory activity | 24.20 ± 1.36 | 7.81 ± 0.85 | 3.91 ± 0.22 | 54.9 ± 1.34% | 64.7 ± 2% | 84 ± 4.36% | – | – | – | – | – | – | inhibition at 15 µM ([2]; Mus musculus, at 15 μM, LPS-stimulated RAW264.7, read-out: inhibition rate on NO release): 92%; cell survival rate (anti-oxidant) [3]: 64% |
